Results from patent US12458688B2, “Epitopes” (Scancell Limited, priority 2018, dated 2025).
Where no end group is shown, it is not given here. [ ]: non-standard residue; d: D form. hCit = NC(=O)NCCCC[C@H](N)C(=O)O

T1: HLA-DP4 (Homo sapiens, UniProt P04440+P20036)
T1 sequence (P20036 29-260): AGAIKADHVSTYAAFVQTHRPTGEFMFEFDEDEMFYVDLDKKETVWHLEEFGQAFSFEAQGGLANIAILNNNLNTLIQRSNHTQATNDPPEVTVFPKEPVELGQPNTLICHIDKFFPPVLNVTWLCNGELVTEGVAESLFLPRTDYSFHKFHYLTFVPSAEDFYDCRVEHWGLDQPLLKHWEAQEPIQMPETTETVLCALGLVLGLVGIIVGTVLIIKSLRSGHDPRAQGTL
T1 sequence (P04440 30-258): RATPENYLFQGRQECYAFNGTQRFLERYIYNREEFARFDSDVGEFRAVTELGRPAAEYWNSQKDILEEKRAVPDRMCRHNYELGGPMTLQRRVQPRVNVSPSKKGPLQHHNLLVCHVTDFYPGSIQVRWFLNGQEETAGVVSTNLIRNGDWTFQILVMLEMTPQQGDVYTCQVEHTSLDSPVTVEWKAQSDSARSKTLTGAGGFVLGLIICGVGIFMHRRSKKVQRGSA


Experiments:
HLA transgenic mice = assay: T cell response to Hcit peptides in HLA transgenic mice (screening, ex vivo ELISpot); design: species or system mouse; details: yes/no; Hcit peptide with CpG/MPLA
Protocol: (§1) C57BL/6 mice (Charles River, UK), HLA-DR4 mice (Model #4149, Taconic, USA), HLA-A2/DR1 (HHDII/DR1, Pasteur Institute), HLA-A2.1+/+HLA-DP4+/+hCD4+/+ (HLA-HHDII/DP4) transgenic mice (EM: 02221, European Mouse Mutant Archive) described in patent WO2013/017545 A1 (EMMA repository, France) were used, aged between 8 and 12 weeks. Peptides were dissolved in PBS to 1 mg/ml and then emulsified (a series of dilutions) with CpG ODN 1826 and MPLA 6 μg/mouse of each (Invivogen, UK). Peptides (25 μg/mouse) were injected subcutaneously at the base of the tail. Mice were immunised at days 1, 7 and 14 for peptide immunisation. Spleens were removed for analysis at day 21 unless stated otherwise.
(§2) ELISpot assays were performed using murine IFNγ, IL-17 and IL-10 capture and detection reagents according to the manufacturer's instructions (Mabtech, Sweden). In brief, anti-IFNγ, IL-17 and IL-10 specific antibodies were coated onto wells of 96-well Immobilin-P plate. Synthetic peptides (at various concentrations) and 5×10^5 per well splenocytes were added to wells of the plate in quadruplicate Tumour target cells were added where relevant at 5×10^4/well in triplicate and plates incubated for 40 hrs at 37° C. After incubation, captured IFNγ, IL-10 and IL-17 were detected by biotinylated anti-IFNγ, IL-10 and IL-17 antibodies and developed with a streptavidin alkaline phosphatase and chromogenic substrate. Lipopolysaccharide (LPS; 5 μg/ml) was used as a positive control. For MHC blocking studies, anti-CD4 blocking antibody (GK1.5) or anti-CD4 blocking antibody (RPA-T4) for HHDII/DP4 mice which express human CD4 and anti-CD8 blocking antibody (2.43) from Bioxcell were used at 20 μg/ml. Spots were analysed and counted using an automated plate reader (Cellular Technologies Ltd).
(§3) Screening was performed to identify potential homocitrullinated vimentin epitopes in mice. Mice were immunised with pools of homocitrullinated peptides. […] Each pool was administered as three immunisations containing 20 μg of each peptide and CpG/MPLA as an adjuvant on day 1, 8 and 15. On day 21 the mice were culled and the immune responses to each peptide within the immunising pool were assessed by ex vivo ELISpot. Given that different mouse strains have different MHC repertoires a number of strains were used for screening. Peptide responses were assessed in transgenic strains expressing human DR4 or HHDII/DR1 in a C57BL/6 background (see methods).
(§4) Screening was performed to identify potential homocitrullinated ALDOA epitopes in transgenic HHDII/DP4 and HHDII/DR1 mice. Mice were immunised with pools of human homocitrullinated peptides. […] Each pool was administered as three immunisations containing 20 μg of each peptide and CpG/MPLA as an adjuvant. After 21 days the mice were culled and the immune responses to each peptide within the immunising pool were assessed by ex vivo ELISpot in HHDII/DP4 (FIG. 4b) and HHDII/DR1 mice (FIG. 4d).
as §4, with “Using this combination of predictions, 5 CyK8 peptides containing homocitrulline were synthesised (Table 4). Screening” for “Screening”, “Cyk8” for “ALDOA”, “HHDII/DP4.” for “HHDII/DP4 and HHDII/DR1 mice.”, “10a).” for “4b) and HHDII/DR1 mice (FIG. 4d).”

HLA-DR4 mice = assay: Ex vivo IFNγ ELISpot after peptide immunisation, HLA-DR4 mice; type: in vivo, mouse
Protocol: as §1, §2, §3

HLA-HHDII/DR1 mice = assay: Ex vivo IFNγ ELISpot after peptide immunisation, HHDII/DR1 mice; type: in vivo, mouse
Protocol: as §1, §2
as §3, with “methods). […]” for “methods).”
The five selected homocitrullinated Cyk8 peptides were also screened in HHDII/DR1 transgenic mice. […] Response to Cyk8 112Hcit peptide in the HHDII/DR1 mice was lost in the presence of CD8 blocking antibody but less effect of the CD4 blocking antibody was seen (FIG. 12b). […] Responses to homocitrullinated Cyk8 peptides show both CD4 and CD8 mediated responses.

HLA-DP4 = biological target: T1, HLA-DP4; assay: DP4 competition assay with biotinylated Hep B peptide; details: inhibition of biotinylated Hep B binding to HLA-DP4; 5 fold excess test peptide, equal amount for unlabelled Hep B
Protocol: 2×T175 gave 2.5×10^7 B16 HHDII/DP4 (B16F1 β2M H2Ab1 dKO A35 HHDII/DP4 H7/2E9/F9 p14) cells. This was enough for 5 preps using the following protocol with Mem-PER™ Plus Membrane Protein Extraction Kit (thermo-scientific cat #89842).
5×10^6 cells were resuspended in the growth media by scraping the cells off the surface of the plate with a cell scraper and then centrifuged at 300 g for 5 mins. The cell pellet was washed with 3 ml of Cell Wash Solution and centrifuged at 300 g for 5 mins. The supernatant was removed and discarded. The cells were resuspended in 1.5 ml of Cell Wash Solution and transfer to a 2 ml centrifuge tube and centrifuged at 300 g for 5 mins. The supernatant was discarded. 0.75 ml of permeabilization buffer was added to the cell pellet and vortexed briefly to obtain a homogeneous cell suspension and incubated for 10 mins at 4° C. with constant mixing. The permeabilized cells were centrifuge for 15 mins at 16,000g before carefully removing the supernatant containing cytosolic proteins and transfering to a new tube. 0.5 ml of solubilization buffer was added to the pellet and resuspend prior to incubating at 4° C. for 30 minutes with constant mixing prior to centrifugation at 16,000g for 15 mins at 4° C. The supernatant containing solubilized membrane and membrane-associated proteins was transfered to a new tube. Aliquots were frozen at −80° C. for future use. 12.5 μl Halt™ Protease and Phosphatase Inhibitor Cocktail, EDTA-free (100X) thermo-scientific (Catalog number 78445) was added prior to freezing.
High binding plates were coated with streptavidin (Sigma S4762 at 1 mg/ml) 1/500 in PBS and incubated overnight at 4° C. The plates were blocked with 1% BSA in PBS for 4 hrs at room temp and washed 3×PBS/0.5% Tweenx. 450 μl of cell prep lysate (B16F1 B16 HHDII/DP4 H7/2E9/F9) was mixed with 50 μg test peptide (see below) or 10 μg of unlabelled Hep B peptide for 30 mins. 10 μg biotinylated Hep B peptide was added & incubated for 4 hrs at 37° C.:
Lysate/peptide mix was added to the plates at 100 μl/well and incubated for 4 hrs at room temperature. Plates were washed 3× with PBS/0.5% Tween. 100 μl per well of Leinco anti-Human HLA-DP4 clone B7/21 #H260 1 mg/ml at 1/500 dilution in 1% BSA/PBS was added and incubated for 1 hr at room temperature prior to washing 3× PBS/0.5% Tween. Goat anti-mouse lgG3-HRP at 0.5 mg/ml 1/500 100 μl per well (Invitrogen #M32607) diluted in 1% BSA/PBS) was added for 1 hr at room temperature prior to washing and adding 150 μl of TMB substrate to each well. The reaction was stopped with 50 μl of 2N H2SO4 and plates read plate at 450 nm.
To ensure that the biotinylation of Hep B had not interfered with its binding, HLA-DP4 was incubated with equal amounts of biotinylated and unlabelled Hep B peptide. Unlabelled peptide competed equally reducing binding by 47% (FIG. 53b).
The biotinylated HepB peptide was then incubated with a 5 fold excess of the unlabelled homocitrulline peptides. All peptides inhibited the binding of biotinylated Hep B to HLA-DP4 but to varying levels (FIG. 53c-e).

B16F1 HHDII/DR1 tumours = assay: Tumour therapy, B16F1 HHDII/DR1 tumour in HHDII/DR1 mice; type: in vivo, mouse; details: peptide with CpG/MPLA days 4, 11, 18
Excerpt: To determine if the epitopes that stimulate T cell responses are presented on MHC-II within the tumour environment, our homocitrullinated peptides were checked for tumour therapy in B16 tumour models. Mice were implanted with tumour cells on day 1 and then immunised with peptides and CpG/MPLA on days 4, 11 and 18.
HHDII/DR1 (FIG. 19a) or DR4 (FIG. 19b) transgenic mice were challenged with B16F1 HHDII/DR1 or B16F1 DR4 tumours respectively prior to immunisation with vimentin 116-135Hcit peptide and tumour growth and survival were monitored.
HHDII/DR1 mice were implanted with B16HHDII/DR1 tumour cells on day 1 and then immunised with Cyk8 371Hcit, 112hcit or both peptides and CpG/MPLA on days 4, 11 and 18.

HLA-DP4 (human) = assay: DP4 competition ELISA; competitor biotinylated Hep B peptide; 5 fold excess of unlabelled peptide
[1] = 3 immunisations with CpG/MPLA, day 21

Row | Molecule | % inhibition (HLA-DP4 (human)) [%] | T cell response (HLA transgenic mice) | other results
1 | EAEEWY-Hcit-S-Hcit-FADLSEAAN [Vimentin 286-303 Hcit] | – | no | –
2 | KVRFLEQQN-Hcit-LLAE [Vimentin 120-134 Hcit] | – | – | cross reactivity of vimentin 116-135 Hcit response to shorter Hcit peptide (HLA-DR4 mice): Cross reactivity was seen; cross reactivity of vimentin 116-135 Hcit response to shorter Hcit peptide (HLA-HHDII/DR1 mice): Cross reactivity was seen
3 | LPLVDTHS-Hcit-RTLL-Hcit-TVETRDGQV [Vimentin 431-454 Hcit] | – | no | –
4 | LSDHHVYLEGTLL-hcit-PNMVT (LSDHHVYLEGTLL[hCit]PNMVT) [Aldolase A 217-235 Hcit] | – | no | % inhibition (HLA-DP4): 84%
5 | NYIDKVRFLEQQNKILLAEL [Vim 116-135 WT, unmodified wild type vimentin 116-135 peptide, reference compound] | – | – | % inhibition (HLA-DP4): 48%; IFNγ ELISpot response (HLA-DR4 mice; [1]): failed to induce any responses; anti-tumour response / survival vs control (B16F1 HHDII/DR1 tumours): did not show a significant anti-tumour response; IFNγ ELISpot response (HLA-HHDII/DR1 mice; [1]): failed to induce any responses
6 | QIDVDVS-Hcit-PDLTAALRDVRQQ [Vimentin 255-275 Hcit] | – | no | –
7 | hcit-CPLL-hcit-PWALTFSYGRALQ ([hCit]CPLL[hCit]PWALTFSYGRALQ) [Aldolase A 289-307 Hcit] | – | no | % inhibition (HLA-DP4): 45%
8 | [hCit]DGADFA[hCit]WRCVL[hCit]IGEH [Aldolase A 140-157 Hcit] | 76 | – | –
9 | IGGVILFHETLYQ[hCit]ADDGRP [Aldolase A 74-93 Hcit] | 69 | – | –

Second part, led by results:

Row | % inhibition (HLA-DP4 (human)) [%] | Molecule | T cell response (HLA transgenic mice) | other results
10 | 71 | KFASFID[hCit]VRFLEQQN[hCit]MLE [Cytokeratin 8 101-120 Hcit] | – | –
11 | 64 | LEQQN[hCit]MLET[hCit]WSLLQQQ[hCit]T [Cytokeratin 8 112-131 Hcit] | – | –
12 | 44 | NYID[hCit]VRFLEQQN[hCit]ILLAEL [Vimentin 116-135 Hcit] | – | –
13 | 60 | [hCit]LALDIEIATYR[hCit]LLEGEE [Cytokeratin 8 381-399 Hcit] | – | –
14 | 84 | LSDHHVYLEGTLL[hCit]PNMVT [Aldolase A 217-235 Hcit] | – | –
